# System: 3D in vitro skin model containing epidermal keratinocytes and dermal fibroblasts
# Assay: LDH cytotoxicity assay in 3D in vitro skin model
# Type: cell-based
# Settings: positive control, no UV; defines 100% cytotoxicity
# Experimental: A 3D in vitro skin model containing epidermal keratinocytes and dermal fibroblasts was used. Some tissues were irradiated with 200 mJ UVB/cm^2. Test materials were applied topically for 24 hours (after UVB exposure) and an MTT assay was used to check the viability of cells. The following treatment groups were used: • olive oil (no CBD); • CBD in olive oil in concentrations of 30, 60, 120, and 250 mg/mL; • No treatment; and • Triton-X® as positive control.
# Cytotoxicity was assessed with a lactate dehydrogenase (LDH) assay using media collected from the wells of the tissues. Increased LDH activity is an indicator of damaged or dead cells.
# The results are provided in the following Table A, with the untreated group defining 0% cytotoxicity and Triton-X defining 100% cytotoxicity. Lower cytotoxicity is better. * indicates p≤0.05 and ** indicates p≤0.01 statistical significance after performing unpaired t-test.
substance,measurement,value
Triton-X,Cytotoxicity (%),100%

# From patent US12059393B2, “Compositions for topical treatment of radiation dermatitis” (Akos Biosciences, Inc, priority 2022, dated 2024)
